{"source": "patent US11414381B2", "about": "“Fluorinated imide salt compound and surfactant” (Mitsubishi Materials Electronic Chemicals Co., Ltd., priority 2018, dated 2022)", "key": {"[1]": {"assay": "Surface tension-reducing ability, background comparison with PFOA / PFOS", "format": "physicochemical", "conditions": "study conducted by the inventors"}, "[2]": {"conditions": "according to Japanese Patent No. 4080998; cited from earlier work"}, "[3]": {"assay": "Surface activity: surface tension of aqueous solution, Wilhelmy method", "format": "physicochemical", "description": "(§1) Each of the compounds was mixed with water so that an aqueous solution having a concentration of 1,000 ppm by mass was prepared. By measuring the surface tension of the prepared aqueous solution, the surface activity was evaluated. The surface tension was measured by the Wilhelmy method using an automatic surface tensiometer CBVP-Z manufactured by Kyowa Interface Science Co., LTD. […] Therefore, in Comparative Example 2, the surface tension was measured in the saturated state."}, "[4]": {"assay": "Stability in water: decomposition rate from 19F-NMR before and after storage", "format": "physicochemical", "conditions": "stored 20 days at 20° C. to 25° C.", "description": "(§2) Each of the compounds was mixed with water so that an aqueous solution having a concentration of 10% by mass was prepared. The prepared aqueous solution was stored for 20 days in a room adjusted to 20° C. to 25° C. By calculating a decomposition rate of the compound from ^19F—NMR spectra of the compound in the aqueous solution that were obtained before and after the storage, the stability in water was evaluated. The decomposition rate was calculated by the following formula. A compound having a decomposition rate of 3% or less was described as “No decomposition”. […] Therefore, in Comparative Example 2, the stability in water was evaluated in the saturated state. Decomposition rate (%)={1-(integration value of ^19F—NMR spectrum after storage/integration value of ^19F—NMR spectrum before storage)}×100"}, "[5]": {"assay": "Dissolution in water when preparing the aqueous test solutions", "format": "physicochemical", "description": "as §1, §2"}}, "data": [{"smiles": "N.O=S(=O)(NS(=O)(=O)C(F)(F)C(F)(F)C(F)(F)C(F)(F)F)C(F)(F)C(F)(F)C(F)(F)C(F)(F)F", "note": "[ammonium bis(perfluorobutanesulfonyl)imide]", "values": [{"measurement": "Surface tension-reducing ability compared to PFOS", "setting": "[1]", "value": "lower than that of PFOS"}, {"measurement": "Ability to reduce surface tension compared to ammonium salt of PFOA", "setting": "[2]", "value": "more able to reduce surface tension than the ammonium salt of perfluorooctanoic acid (PFOA)"}]}, {"smiles": "O=S(=O)([N-]S(=O)(=O)C(F)(F)C(F)(F)C(F)(F)C(F)(F)F)C(F)(F)C(F)(F)C(F)(F)C(F)(F)F.[K+]", "note": "[Comparative Example 1, bis(perfluorobutanesulfonyl)imide potassium salt]", "values": [{"measurement": "Surface tension", "setting": "[3]; aqueous solution, concentration 1,000 ppm by mass", "value": 43, "unit": "mN/m"}, {"measurement": "Stability in water", "setting": "[4]; 10% by mass aqueous solution", "value": "No decomposition (A compound having a decomposition rate of 3% or less was described as “No decomposition”)"}]}, {"smiles": "O=S(=O)([O-])C(F)(F)C(F)(F)C(F)(F)C(F)(F)C(F)(F)C(F)(F)C(F)(F)C(F)(F)F.[K+]", "note": "[Comparative Example 2, potassium salt of perfluorooctanesulfonic acid (PFOS)]", "values": [{"measurement": "Surface tension", "setting": "[3]; saturated aqueous solution (not completely dissolved)", "value": "41 (saturated) mN/m"}, {"measurement": "Stability in water", "setting": "[4]; saturated aqueous solution", "value": "No decomposition (A compound having a decomposition rate of 3% or less was described as “No decomposition”)"}, {"measurement": "Dissolution in water", "setting": "[5]; mixed with water for 10% by mass", "value": "formed a saturated aqueous solution without being completely dissolved in water"}, {"measurement": "Dissolution in water", "setting": "[5]; mixed with water for 1,000 ppm by mass", "value": "formed a saturated aqueous solution without being completely dissolved in water"}]}]}
